Measured values taken from US8513277B2, “Pyrrolo[3,2-C] pyridine derivatives and processes for the preparation thereof” (Yuhan Corporation, priority 2004, dated 2013).
Structures can show the parent of a compound that is named as a salt.

Assays:
[1] = target: T1, H+/K+-ATPase (hog gastric vesicle) (Sus scrofa, UniProt P19156); assay: Inhibitory effects on proton pump (H+/K+-ATPase) activity; type: biochemical; settings: K+ stimulated H+/K+-ATPase activity, hog gastric vesicles, Pi measured at 620 nm
T1 construct: used as an enzyme source of the in vitro enzyme reaction assay of proton pump; from tissue; host or cells: hog gastric fundic mucosa, membrane vesicles (sucrose/Ficoll gradient), lyophilized
T1 sequence (P19156 2-1034 limits assumed): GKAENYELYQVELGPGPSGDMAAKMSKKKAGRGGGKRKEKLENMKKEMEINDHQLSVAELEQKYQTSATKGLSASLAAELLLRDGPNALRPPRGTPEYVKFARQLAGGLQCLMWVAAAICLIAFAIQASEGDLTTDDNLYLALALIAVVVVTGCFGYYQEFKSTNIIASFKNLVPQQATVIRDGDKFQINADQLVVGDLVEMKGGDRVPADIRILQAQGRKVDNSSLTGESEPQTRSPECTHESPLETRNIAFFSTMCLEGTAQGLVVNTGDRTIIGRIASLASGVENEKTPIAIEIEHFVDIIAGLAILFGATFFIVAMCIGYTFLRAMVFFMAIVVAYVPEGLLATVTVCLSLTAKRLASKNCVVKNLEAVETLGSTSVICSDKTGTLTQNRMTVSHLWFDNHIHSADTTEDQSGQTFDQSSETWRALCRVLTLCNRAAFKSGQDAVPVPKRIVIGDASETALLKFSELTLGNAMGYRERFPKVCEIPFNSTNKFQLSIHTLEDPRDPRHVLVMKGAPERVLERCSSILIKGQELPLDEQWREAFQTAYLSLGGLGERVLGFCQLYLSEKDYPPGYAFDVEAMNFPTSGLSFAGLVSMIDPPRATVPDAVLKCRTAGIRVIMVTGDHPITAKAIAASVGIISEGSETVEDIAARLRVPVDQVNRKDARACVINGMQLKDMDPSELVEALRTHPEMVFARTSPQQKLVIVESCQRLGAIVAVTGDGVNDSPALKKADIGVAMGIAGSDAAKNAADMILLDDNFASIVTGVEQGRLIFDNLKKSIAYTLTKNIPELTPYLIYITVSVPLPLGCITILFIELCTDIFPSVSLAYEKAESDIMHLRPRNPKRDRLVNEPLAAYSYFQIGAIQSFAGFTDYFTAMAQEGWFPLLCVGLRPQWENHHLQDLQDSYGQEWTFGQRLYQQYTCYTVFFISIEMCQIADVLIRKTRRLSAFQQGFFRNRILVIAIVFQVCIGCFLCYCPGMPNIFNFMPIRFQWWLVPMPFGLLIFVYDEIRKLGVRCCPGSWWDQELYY
T1 sequence (P18434 whole entry partner): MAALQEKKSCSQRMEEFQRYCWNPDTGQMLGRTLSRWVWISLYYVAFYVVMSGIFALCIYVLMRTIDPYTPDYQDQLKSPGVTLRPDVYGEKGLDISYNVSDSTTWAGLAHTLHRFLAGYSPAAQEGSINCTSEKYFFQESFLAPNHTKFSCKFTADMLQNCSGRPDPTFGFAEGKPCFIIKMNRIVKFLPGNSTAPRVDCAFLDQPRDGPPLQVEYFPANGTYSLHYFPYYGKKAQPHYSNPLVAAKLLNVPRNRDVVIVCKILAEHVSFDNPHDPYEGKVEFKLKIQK
Description: The hog fundic regions containing parietal and peptic cells were scraped with slide-glass. The collected cells were suspended in 10 ml of 0.25M sucrose buffer and homogenized using a tight-fitting Teflon-glass homogenizer. The homogenate was centrifuged for 35 min at 8,000 rpm and the pellet was discarded. The supernatant was further centrifuged for 75 min at 25,000 rpm. The resulting pellets were re-suspended in the sucrose buffer (10 ml), and then the suspension was laid onto discontinuous density gradients consisting of 0.25M sucrose buffer and isolation medium containing 9% Ficoll (w/w). After being centrifuged for 3 hours and 15 minutes at 100,000×g, the material at the interface of sucrose buffer and Ficoll solution was collected and then centrifuged for 40 minutes at 100,000×g. The resulting pellets were re-suspended in 1 ml of 5 mM […] buffer (pH 6.1). This material was lyophilized and stored at −70° C. and used as an enzyme source of the in vitro enzyme reaction assay of proton pump. The inhibitory effects of the compounds of the present invention against proton pump activity were evaluated in 96-well plate. In this assay, the K^+ specific H^+/K^+-ATPase activity was calculated based on the difference between the activity of H^+/K^+-ATPase activity with K^+ and without K^+ ion. In 96-well plate, 1% dimethylsulfoxide (DMSO) in buffer was added to negative and positive control groups and the diluted compounds of the present invention in buffer were added to test group. All assays were performed in 100 μl reaction volume at room temperature, and the hog gastric vesicle was kept in ice before use. […] Then lyophilized vesicle in 5 mM Pipes/Tris buffer (pH 6.1) was pre-incubated in the presence of various concentrations of test compounds. After a 5 minute incubation, negative and positive buffers were respectively added to the previous reaction mixture. As the substrate, ATP was added to the reaction buffer, and incubated for 30 minutes at 37° C. Enzymatic activity was stopped by the addition of colorimetric reagent (2× malachite green, 1× ammonium molybdate, 1× polyvinyl alcohol, 2× H2O) and the amount of mono phosphate (Pi) in the reaction was measured at 620 nm using the micro plate reader (Genios Pro, TECAN). The difference between the Pi production with K^+ and without K^+ is taken as K^+ stimulated H^+/K^+-ATPase activity. The IC50s of test compounds were calculated from each % inhibition value of compounds using the method of Litchfield-Wilcoxon (J. Pharmacol. Exp. Ther. (1949) 96, 99).

[2] = system: basal gastric acid secretion in pylorus-ligated rats; assay: Inhibitory effects on basal gastric acid secretion in pylorus-ligated rats (Shay's rat model); type: in vivo, rat (Sprague Dawley); settings: oral, one hour before pylorus ligation, total acid output 5 hours after ligation, male SD rats
Description: Inhibitory effects of the compounds of the present invention on basal gastric acid secretion were performed according to Shay's rat model (Shay, H., et al., 1945, gastroenterology, 5, 43-61). Male Sprague Dawley (SD) rats (200±10 g body weight) were divided into […] (n=5) and fasted for 24 hours with free access to water. Control group was orally administered with 0.5% methylcellulose alone and the other groups were orally administered with test compounds suspended in 0.5% methylcellulose solution at doses of 1, 3 and 10 mg/kg/5 ml one hour before pylorus ligation.
Under ether anesthesia, the abdomens of the rats were incised and then the pylorus was ligated. 5 hours after ligation, the animals were sacrificed, and the gastric contents were collected. The collected contents were centrifuged at 1,000×g for 10 minutes to obtain the gastric juice. Total acid output was measured by 0.01 N NaOH volume (ueq/ml) for automatic titration of the gastric juice to pH 7.0 and the ED50s of test compounds were calculated using the Litchfield-Wilcoxon method. % inhibitory activity was calculated from the following equation and the results are shown in Table 2.
% inhibitory activity of test compound=(total acid output of control group−total acid output of the group treated with test compounds)/total acid output of control group×100

hog gastric H+/K+-ATPase = target: T2, hog gastric H+/K+-ATPase (Sus scrofa, UniProt P19156); assay: Reversible inhibition of hog gastric H+/K+-ATPase (washout method); type: biochemical
T2 construct: Gastric vesicles were prepared from hog fundic mucosa; from tissue; host or cells: hog fundic mucosa, gastric vesicles (microsomes), lyophilized
T2 sequence (P19156 2-1034 limits assumed): as the sequence (P19156 2-1034 limits assumed) above
T2 sequence (P18434 whole entry partner): as the sequence (P18434 whole entry partner) above
Description: Gastric vesicles were prepared from hog fundic mucosa using the method of Saccomani et al. (Saccomani G, Stewart H B, Shqw D, Lewin M and Sachs G, Characterization of gastric mucosal membranes. IX. Fraction and purification of K-ATPase-containing vesicles by zonal centrifugation and free-flow electrophoresis technique. Biochem. Biophy. Acta. (BBA)-Biomembranes 465, 311-330, 1977). This material was lyophilized and stored at −70° C. The protein content of gastric vesicles was determined by the Bradford method using bovine serum albumin as a standard (Bradford MM, A rapid and sensitive method for the quantitation of microgram quantities of protein utilizing the principle of protein-dye binding. Anal Biochem. 72, 248-254, 1976).
Activity of H^+/K^+-ATPase in hog microsome (lyophilized vesicle) was measured by the inorganic phosphate released from ATP using an one-step colorimetric detection method at the concentration at which the test compounds have 50% inhibition of the proton pump (Chan K M, Delfert D, and Junger K D, A direct colorimetric assay for Ca^2+-stimulated ATPase activity. Anal Biochem, 157, 375-380, 1986). […]

Row | IC50 [1] [nM] | SMILES | further results
1 | 230 | Cc1c(Cc2ccccc2)c2c(N3CCc4ccccc4C3)nccc2n1C.Cl [Example 56, 3-benzyl-1,2-dimethyl-4-(1,2,3,4-tetrahydroisoquinolin-2-yl)-1H-pyrrolo[3,2-c]pyridine hydrochloride] | ED50 [2]: 2.9 mg/kg
2 | 90 | Cc1[nH]c2ccnc(N3CCc4ccccc4C3)c2c1Cc1ccccc1.Cl [Example 55, 3-benzyl-2-methyl-4-(1,2,3,4-tetrahydroisoquinolin-2-yl)-1H-pyrrolo[3,2-c]pyridine hydrochloride] | ED50 [2]: 1.6 mg/kg; inhibition of H+/K+-ATPase activity after washout (hog gastric H+/K+-ATPase; after washout, compared with non-treated group): did not inhibit; inhibition of H+/K+-ATPase activity before washout (hog gastric H+/K+-ATPase; before washout, compound at the concentration giving 50% inhibition): 50%
3 | < 4000 | COCCn1c(C)c(Cc2ccccc2)c2c(N3CCc4ccccc4C3)nccc21 [Example 63, 3-benzyl-1-(2-methoxyethyl)-2-methyl-4-(1,2,3,4-tetrahydroisoquinolin-2-yl)-1H-pyrrolo[3,2-c]pyridine hydrochloride] | –
4 | 430 | Cc1c(C)n(C)c2ccnc(N3CCc4ccccc4C3)c12 [Example 6, 1,2,3-trimethyl-4-(1,2,3,4-tetrahydroisoquinolin-2-yl)-1H-pyrrolo[3,2-c]pyridine hydrochloride] | –
5 | 530 | Cc1[nH]c2ccnc(NCc3ccc(F)cc3)c2c1Cc1ccccc1 [Example 71, 3-benzyl-2-methyl-4-(4-fluorobenzylamino)-1H-pyrrolo[3,2-c]pyridine hydrochloride] | –

Second part, the compound before the results:

Row | SMILES | IC50 [1] [nM] | further results
6 | Cc1c(Cc2ccccc2)c2c(N3CCc4ccccc4C3)nccc2n1CC1OCCO1 [Example 65, 3-benzyl-1-([1,3]dioxolan-2-ylmethyl)-2-methyl-4-(1,2,3,4-tetrahydroisoquinolin-2-yl)-1H-pyrrolo[3,2-c]pyridine hydrochloride] | 2120 | –
7 | Cc1c(C)n(CCO)c2ccnc(N3CCc4ccccc4C3)c12 [Example 20, 2,3-dimethyl-1-(2-hydroxyethyl)-4-(1,2,3,4-tetrahydroisoquinolin-2-yl)-1H-pyrrolo[3,2-c]pyridine hydrochloride] | < 4000 | –
8 | CCn1c(C)c(C)c2c(N3CCc4ccccc4C3)nccc21 [Example 7, 1-ethyl-2,3-dimethyl-4-(1,2,3,4-tetrahydroisoquinolin-2-yl)-1H-pyrrolo[3,2-c]pyridine hydrochloride] | 1030 | –
9 | COCCn1c(C)c(C)c2c(N3CCc4ccccc4C3)nccc21 [Example 3, 2,3-dimethyl-1-(2-methoxyethyl)-4-(1,2,3,4-tetrahydroisoquinolin-2-yl)-1H-pyrrolo[3,2-c]pyridine hydrochloride] | 2050 | –
10 | Cc1[nH]c2ccnc(N3CCc4ccccc4C3)c2c1C [Example 1, 2,3-dimethyl-4-(1,2,3,4-tetrahydroisoquinolin-2-yl)-1H-pyrrolo[3,2-c]pyridine] | 470 | –
11 | Cc1c(Cc2ccccc2)c2c(N3CCc4ccccc4C3)nccc2n1C1CC1 [Example 61, 3-benzyl-1-cyclopropyl-2-methyl-4-(1,2,3,4-tetrahydroisoquinolin-2-yl)-1H-pyrrolo[3,2-c]pyridine hydrochloride] | 280 | –
12 | Cc1c(Cc2ccccc2)c2c(N3CCc4ccccc4C3)nccc2n1Cc1ccccc1 [Example 66, 1,3-dibenzyl-2-methyl-4-(1,2,3,4-tetrahydroisoquinolin-2-yl)-1H-pyrrolo[3,2-c]pyridine hydrochloride] | < 4000 | –
13 | Cc1[nH]c2ccnc(N3CCc4ccccc4C3)c2c1Cc1ccccc1 [Example 70, 3-benzyl-2-methyl-4-(1,2,3,4-tetrahydroisoquinolin-2-yl)-1H-pyrrolo[3,2-c]pyridine sodium] | 220 | –
